Laboratory results: patent publication US6156700A, “3-(1,2-Benzisothiazol- and isoxazol-5-yl)-2,4(1H,3H)-pyrimidinedione or thione and 3-(1,2-benzisothiazol- and isoxazol-5-yl)-4(3H)-pyrimidinone or thione herbicidal agents” (American Cyanmid Company, priority 1998, dated 2000)

How the values were obtained:
[1] = system: ABUTH; experiment: Preemergence herbicidal evaluation; type: in vivo; parameters: scale not given here
Procedure: (§1) The preemergence and postemergence herbicidal properties of certain compounds of the present invention are compared with certain compounds disclosed in U.S. Pat. Nos. 5,484,763 and 5,523,278. The evaluations are performed as described in Examples 185 and 186. Data in Tables V and VI are reported by the compound number given in Example 185 for the compounds of this invention or by comparative compound letter for the compounds disclosed in U.S. Pat. Nos. 5,484,763 and 5,523,278.

[2] = system: AMBEL; experiment: Preemergence herbicidal evaluation; type: in vivo; parameters: scale not given here
Procedure: as §1

[3] = system: CASOB; experiment: Preemergence herbicidal evaluation; type: in vivo; parameters: scale not given here
Procedure: as §1

[4] = system: CHEAL; experiment: Preemergence herbicidal evaluation; type: in vivo; parameters: scale not given here
Procedure: as §1

[5] = system: ECHCG; experiment: Preemergence herbicidal evaluation; type: in vivo; parameters: scale not given here
Procedure: as §1

[6] = system: GALAP; experiment: Preemergence herbicidal evaluation; type: in vivo; parameters: scale not given here
Procedure: as §1

[7] = system: GLXMAW; experiment: Preemergence herbicidal evaluation; type: in vivo; parameters: scale not given here
Procedure: as §1

[8] = system: IPOSS; experiment: Preemergence herbicidal evaluation; type: in vivo; parameters: scale not given here
Procedure: as §1

[9] = system: SETVI; experiment: Preemergence herbicidal evaluation; type: in vivo; parameters: scale not given here
Procedure: as §1

[10] = system: ZEAMX; experiment: Preemergence herbicidal evaluation; type: in vivo; parameters: scale not given here
Procedure: as §1

[11] = system: ORYSAT; experiment: Preemergence herbicidal evaluation; type: in vivo, Oryza sativa; parameters: scale not given here
Procedure: as §1

[12] = system: ABUTH; experiment: Postemergence herbicidal evaluation; type: in vivo
[13] = system: AMBEL; experiment: Postemergence herbicidal evaluation; type: in vivo
[14] = system: CASOB; experiment: Postemergence herbicidal evaluation; type: in vivo
[15] = system: CHEAL; experiment: Postemergence herbicidal evaluation; type: in vivo
[16] = system: GALAP; experiment: Postemergence herbicidal evaluation; type: in vivo
[17] = system: IPOSS; experiment: Postemergence herbicidal evaluation; type: in vivo
[18] = system: ECHCG; experiment: Postemergence herbicidal evaluation; type: in vivo
[19] = system: SETVI; experiment: Postemergence herbicidal evaluation; type: in vivo
[20] = system: GLXMAW; experiment: Postemergence herbicidal evaluation; type: in vivo
[21] = system: ORYSAT; experiment: Postemergence herbicidal evaluation; type: in vivo, Oryza sativa
[22] = system: ZEAMX; experiment: Postemergence herbicidal evaluation; type: in vivo

Measured: herbicidal effect rating

O=C1C2=C(CCCC2)C(=O)N1c1ccc2sncc2c1 [C]
2.0: [1]; 0.0620-0.0630 kg/ha | [2]; 0.1250 kg/ha | [2]; 0.2500 kg/ha | [5]; 0.1250 kg/ha | [6]; 0.0620-0.0630 kg/ha | [6]; 0.1250 kg/ha | [8]; 0.5000 kg/ha | [9]; 0.1250 kg/ha | [11]; 0.0620-0.0630 kg/ha | [11]; 0.1250 kg/ha | [16]; 0.0157-0.0160 kg/ha | [17]; 0.0157-0.0160 kg/ha | [19]; 0.5000 kg/ha | [20]; 0.1250 kg/ha | [21]; 0.0157-0.0160 kg/ha | [21]; 0.0313-0.0320 kg/ha | [22]; 0.0313-0.0320 kg/ha
6.0: [2]; 0.5000 kg/ha | [5]; 0.5000 kg/ha | [6]; 0.2500 kg/ha | [13]; 0.0157-0.0160 kg/ha | [13]; 0.0313-0.0320 kg/ha | [16]; 0.1250 kg/ha | [16]; 0.2500 kg/ha | [17]; 0.0313-0.0320 kg/ha | [17]; 0.2500 kg/ha
3.0: [2]; 0.0313-0.0320 kg/ha | [2]; 0.0620-0.0630 kg/ha | [4]; 0.0313-0.0320 kg/ha | [4]; 0.2500 kg/ha | [14]; 0.0157-0.0160 kg/ha | [15]; 0.0313-0.0320 kg/ha | [15]; 0.0625-0.0640 kg/ha | [15]; 0.1250 kg/ha | [16]; 0.0313-0.0320 kg/ha | [20]; 0.0625-0.0640 kg/ha | [21]; 0.2500 kg/ha | [22]; 0.5000 kg/ha
8.0: [12]; 0.0157-0.0160 kg/ha | [13]; 0.1250 kg/ha | [14]; 0.0313-0.0320 kg/ha
0.0: [1]; 0.0313-0.0320 kg/ha | [3]; 0.0620-0.0630 kg/ha | [3]; 0.1250 kg/ha | [3]; 0.2500 kg/ha | [5]; 0.0313-0.0320 kg/ha | [5]; 0.0620-0.0630 kg/ha | [7]; 0.0313-0.0320 kg/ha | [7]; 0.0620-0.0630 kg/ha | [7]; 0.1250 kg/ha | [7]; 0.2500 kg/ha | [7]; 0.5000 kg/ha | [8]; 0.0313-0.0320 kg/ha | [8]; 0.0620-0.0630 kg/ha | [8]; 0.1250 kg/ha | [8]; 0.2500 kg/ha | [9]; 0.0313-0.0320 kg/ha | [9]; 0.0620-0.0630 kg/ha | [10]; 0.0313-0.0320 kg/ha | [10]; 0.0620-0.0630 kg/ha | [10]; 0.1250 kg/ha | [10]; 0.2500 kg/ha | [10]; 0.5000 kg/ha | [15]; 0.0157-0.0160 kg/ha | [18]; 0.0157-0.0160 kg/ha | [18]; 0.0313-0.0320 kg/ha | [18]; 0.0625-0.0640 kg/ha | [18]; 0.1250 kg/ha | [18]; 0.2500 kg/ha | [18]; 0.5000 kg/ha | [19]; 0.0157-0.0160 kg/ha | [19]; 0.0313-0.0320 kg/ha | [19]; 0.0625-0.0640 kg/ha | [19]; 0.1250 kg/ha | [19]; 0.2500 kg/ha
5.5: [3]; 0.5000 kg/ha
9.0: [1]; 0.2500 kg/ha | [1]; 0.5000 kg/ha | [12]; 0.0313-0.0320 kg/ha | [12]; 0.0625-0.0640 kg/ha | [12]; 0.1250 kg/ha | [12]; 0.2500 kg/ha | [12]; 0.5000 kg/ha | [13]; 0.5000 kg/ha | [14]; 0.5000 kg/ha | [16]; 0.5000 kg/ha
2.5: [20]; 0.2500 kg/ha | [21]; 0.0625-0.0640 kg/ha | [21]; 0.1250 kg/ha | [22]; 0.2500 kg/ha
5.0: [4]; 0.1250 kg/ha | [9]; 0.5000 kg/ha | [15]; 0.5000 kg/ha | [16]; 0.0625-0.0640 kg/ha | [17]; 0.0625-0.0640 kg/ha
1.5: [20]; 0.0313-0.0320 kg/ha | [22]; 0.0157-0.0160 kg/ha | [22]; 0.0625-0.0640 kg/ha | [22]; 0.1250 kg/ha
7.5: [6]; 0.5000 kg/ha
1.0: [3]; 0.0313-0.0320 kg/ha | [11]; 0.0313-0.0320 kg/ha | [20]; 0.0157-0.0160 kg/ha
7.0: [4]; 0.5000 kg/ha | [13]; 0.0625-0.0640 kg/ha | [13]; 0.2500 kg/ha | [14]; 0.0625-0.0640 kg/ha | [14]; 0.1250 kg/ha | [14]; 0.2500 kg/ha | [17]; 0.1250 kg/ha | [17]; 0.5000 kg/ha
4.5: [20]; 0.5000 kg/ha | [21]; 0.5000 kg/ha
4.0: [1]; 0.1250 kg/ha | [4]; 0.0620-0.0630 kg/ha | [5]; 0.2500 kg/ha | [9]; 0.2500 kg/ha | [11]; 0.2500 kg/ha | [11]; 0.5000 kg/ha | [15]; 0.2500 kg/ha
